≈ marks a conversion by molar mass, not a printed value. Where two headings read alike, the source gives them in different places.
Tests used:
H. influenzae ATCC 49247 = assay: MIC test according to CLSI M7-A9, H. influenzae ATCC 49247; type: cell-based; conditions: Haemophilus influenzae, ATCC49247; CLSI M7-A9, Haemophilus Test Medium, 24 h
Protocol: MIC Test (H. influenzae ATCC 49247)
Susceptibility testing of H. influenzae ATCC 49247 was performed according to Clinical Laboratory Standard Institute (CLSI) guidelines M7-A9. Test articles were stored at room temperature prior to use, then dissolved in filtered sterile DMSO. Stock DMSO solutions were diluted further in Haemophilus Test Medium (HTM) to provide appropriate test concentrations. Cultures of H. influenzae ATCC 49247 were added in accordance with CLSI guidelines and plates incubated at 37° C. in air for 24 h. Endpoints were determined visually (and by spectrophotometer at 600 nm) and the minimum inhibitory concentration (MIC) defined as the lowest concentration of test articles resulting in complete inhibition of visible bacterial growth.

S. aureus SgtB = S. aureus SgtB (Staphylococcus aureus, UniProt Q99T05); assay: Dose-dependent displacement of probe CMG121 from S. aureus SgtB by fluorescence polarization; type: binding; set-up: made in house
Protocol: I. Dose-Dependent Displacement of CMG121 from S. aureus SgtB by Fluorescence Polarization
A black 384 well plate (Corning NBS Low Volume No. 3820) was filled (10 μL per well) with an equilibrated solution containing 10 mM TRIS (pH=8.0), 100 mM NaCl, 75 nM CMG121, and 1.0-1.5 μM S. aureus SgtB (depending on protein batch). Due to presence of 8 mM CHAPS detergent in the buffer of the S. aureus SgtB stock, the final assay solution contains 100-160 μM CHAPS. Using an HP D300 Digital Dispenser, for each compound a 1/1 dilution series (12 wells) of the primary hit compound in DMSO (normalized to 1 μL with DMSO) was prepared and added to the aforementioned assay solution. The plate was incubated at 4° C. for 30 min and read with a Perkin Elmer EnVision microplate reader (FP-read out, excitation: 480 nm; emission: 535 nm).
FIGS. 10A-E show values of reduction of fluorescence polarization for exemplified compounds. […] In the primary assay, FP was read after 30 min at 4° C., compound concentration was ca. 100 μM, and 90% reduction in FP was threshold for scoring hits (Gampe et al., J. Am. Chem. Soc. 2013, 135 (10), 3776-3779; U.S. Provisional Patent Application, U.S. Ser. No. 61/621,229, filed on Apr. 6, 2012; International Application No. PCT/US2013/030800 filed on Mar. 13, 2013).
The values were determined in two independent experiments. IC50=10 μM; Hill slope: −0.92.

S. aureus ATCC 29213 = assay: MIC test according to CLSI M7-A9, S. aureus ATCC 29213; type: cell-based; conditions: Staphylococcus aureus
Procedure, shortened: (§1)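 Per CLSI M7-A9, DMSO stocks diluted in cation-adjusted Mueller Hinton broth, plates incubated 24 h at 37 °C in air. MIC is the lowest concentration giving complete inhibition of visible growth, read visually and at 600 nm.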

S. aureus ATCC 43300 = assay: MIC test according to CLSI M7-A9, S. aureus ATCC 43300; type: cell-based; conditions: Staphylococcus aureus, read-out: S. aureus ATCC 43300 MIC at 24 h
Procedure, shortened: as §1

MSSA Newman = assay: MIC test in TSB medium with MTT staining, MSSA Newman; type: cell-based, Staphylococcus aureus; conditions: Staphylococcus aureus
Protocol: MIC Test (Methicillin Susceptible Staphylococcus aureus (MSSA Newman))
Overnight cultures of MSSA Newman were grown up in TSB medium at 37° C. The cultures obtained were normalized with TSB to OD600=0.6 and diluted 100-fold. 1.5 μL of a dilution series of Example Compounds in DMSO (100×, in duplicate), and the diluted bacterial culture (150 μL) was added to wells of a sterile, clear 96 well plate and incubated at 37° C.

S. aureus Newman = assay: MIC test according to CLSI M7-A9, S. aureus Newman; type: cell-based; conditions: Staphylococcus aureus, CLSI M7-A9, CAMHB, 24 h (Table 3), read-out: S. aureus ATCC Newman MIC
Procedure, shortened: as §1

[1] = ATCC29213, CLSI M7-A9, CAMHB, 24 h (Table 2), read-out: S. aureus ATCC 29213 MIC at 24 h
[2] = ATCC43300, CLSI M7-A9, CAMHB, 24 h (Table 2)
[3] = TSB, 37° C., MTT staining after 7 h, read-out: MSSA Newman MIC at 7 h
[4] = TSB, 37° C., MTT staining after 24 h, read-out: MSSA Newman MIC at 24 h
[5] = ATCC29213, CLSI M7-A9, CAMHB, 24 h (Table 3), read-out: S. aureus ATCC 29213 MIC

| MIC (S. aureus ATCC 29213; [1]) | MIC (S. aureus ATCC 43300; [2]) | MIC (MSSA Newman; [3]) | MIC (MSSA Newman; [4]) | Compound | other results |
| --- | --- | --- | --- | --- | --- |
| – | – | – | – | Cc1cc(OCCCNc2nc(-c3cc[n+]([O-])cc3)nc3cc(=O)[nH]n23)ccc1Cl [Example 126, 4-(4-{[3-(4-chloro-3-methylphenoxy)propyl]amino}-7-oxo-6H,7H-pyrazolo[1,5-a][1,3,5]triazin-2-yl)pyridin-1-ium-1-olate] | MIC (H. influenzae ATCC 49247): 1 µg/mL (≈ 2.34 µM) |
| – | – | – | – | Cc1ccc(CSc2nc(-c3ccc(C(C)(C)C)cc3)nc3cc(=O)[nH]n23)cc1 [Entry 9] | IC50 (S. aureus SgtB): 112 µM |
| 16 µg/mL (≈ 45.3 µM) | 16 µg/mL (≈ 45.3 µM) | 3.1 µg/mL (≈ 8.77 µM) | 6.2 µg/mL (≈ 17.5 µM) | CCCC(C)Nc1nc(-c2ccc(C(C)(C)C)cc2)nc2cc(=O)[nH]n12 (centres unmarked) [Example 28, 2-(4-tert-butylphenyl)-4-[(pentan-2-yl)amino]-6H,7H-pyrazolo[1,5-a][1,3,5]triazin-7-one] | – |
| – | – | – | – | Cc1ccc(Cc2c(=O)[nH]n3c(=S)[nH]c(-c4ccc(C(C)(C)C)cc4)nc23)cn1 [Example 112, 2-(4-tert-butylphenyl)-8-[(6-methylpyridin-3-yl)methyl]-4-sulfanylidene-3H,4H,6H,7H-pyrazolo[1,5-a][1,3,5]triazin-7-one] | MIC (S. aureus ATCC 29213; [5]): 8 µg/mL (≈ 19.7 µM); MIC (H. influenzae ATCC 49247): 16 µg/mL (≈ 39.5 µM); MIC (S. aureus Newman): 4 µg/mL (≈ 9.86 µM) |
| 2 µg/mL (≈ 4.3 µM) | 4 µg/mL (≈ 8.6 µM) | 3.1 µg/mL (≈ 6.67 µM) | 3.1 µg/mL (≈ 6.67 µM) | Cc1cc(NCCCNc2nc(-c3ccc(C(C)(C)C)cc3)nc3cc(=O)[nH]n23)ccc1Cl [Example 47, 2-(4-tert-butylphenyl)-4-({3-[(4-chloro-3-methylphenyl)amino]propyl}amino)-6H,7H-pyrazolo[1,5-a][1,3,5]triazin-7-one] | – |
| > 32 µg/mL | > 32 µg/mL | 50 µg/mL (≈ 141 µM) | 100 µg/mL (≈ 281 µM) | COCCCNc1nc(-c2ccc(C(C)(C)C)cc2)nc2cc(=O)[nH]n12 [Example 27, 2-(4-tert-butylphenyl)-4-[(3-methoxypropyl)amino]-6H,7H-pyrazolo[1,5-a][1,3,5]triazin-7-one] | – |
| 8 µg/mL (≈ 18.9 µM) | 16 µg/mL (≈ 37.8 µM) | – | – | CC(C)(C)c1ccc(-c2nc(NCCCOC3CCCCC3)n3[nH]c(=O)cc3n2)cc1 [Example 31, 2-(4-tert-butylphenyl)-4-{[3-(cyclohexyloxy)propyl]amino}-6H,7H-pyrazolo[1,5-a][1,3,5]triazin-7-one] | MIC (H. influenzae ATCC 49247): 32 µg/mL (≈ 75.5 µM) |
| 16 µg/mL (≈ 53.3 µM) | 16 µg/mL (≈ 53.3 µM) | 12.5 µg/mL (≈ 41.6 µM) | 12.5 µg/mL (≈ 41.6 µM) | CC(C)(C)c1ccc(-c2nc3cc(=O)[nH]n3c(=S)[nH]2)cc1 [Example 1, 2-(4-tert-butylphenyl)-4-sulfanylidene-3H,4H,6H,7H-pyrazolo[1,5-a][1,3,5]triazin-7-one] | – |
| > 32 µg/mL | > 32 µg/mL | 1.6 µg/mL (≈ 3.59 µM) | 6.2 µg/mL (≈ 13.9 µM) | Cc1cccc(OCCCNc2nc(-c3ccc(C(C)(C)C)cc3)nc3cc(=O)[nH]n23)c1C [Example 30, 2-(4-tert-butylphenyl)-4-{[3-(2,3-dimethylphenoxy)propyl]amino}-6H,7H-pyrazolo[1,5-a][1,3,5]triazin-7-one] | – |
| > 64 µg/mL | 8 µg/mL (≈ 17.9 µM) | > 100 µg/mL | > 100 µg/mL | Cc1ccnc(C)c1OCCCNc1nc(-c2ccc(C(C)(C)C)cc2)nc2cc(=O)[nH]n12 [Example 53, 2-(4-tert-butylphenyl)-4-({3-[(2,4-dimethylpyridin-3-yl)oxy]propyl}amino)-6H,7H-pyrazolo[1,5-a][1,3,5]triazin-7-one] | – |
| 8 µg/mL (≈ 19.3 µM) | 16 µg/mL (≈ 38.5 µM) | 1.6 µg/mL (≈ 3.85 µM) | 3.1 µg/mL (≈ 7.46 µM) | CC(C)(C)c1ccc(-c2nc(NCCCCc3ccccc3)n3[nH]c(=O)cc3n2)cc1 [Example 29, 2-(4-tert-butylphenyl)-4-[(4-phenylbutyl)amino]-6H,7H-pyrazolo[1,5-a][1,3,5]triazin-7-one] | – |
| 32 µg/mL (≈ 71.8 µM) | 16 µg/mL (≈ 35.9 µM) | 3.1 µg/mL (≈ 6.96 µM) | 6.2 µg/mL (≈ 13.9 µM) | Cc1ccc(OCCCNc2nc(-c3ccc(C(C)(C)C)cc3)nc3cc(=O)[nH]n23)cc1C [Example 49, 2-(4-tert-butylphenyl)-4-{[3-(3,4-dimethylphenoxy)propyl]amino}-6H,7H-pyrazolo[1,5-a][1,3,5]triazin-7-one] | – |
| – | – | – | – | COc1ccc(CNc2nc(-c3ccc(C(C)(C)C)cc3)nc3cc(=O)[nH]n23)cc1 [Entry 14] | IC50 (S. aureus SgtB): > 200 µM |
| 4 µg/mL (≈ 8.58 µM) | 4 µg/mL (≈ 8.58 µM) | 3.3 µg/mL (≈ 7.08 µM) | 3.3 µg/mL (≈ 7.08 µM) | Cc1cc(OCCCNc2nc(-c3ccc(C(C)(C)C)cc3)nc3cc(=O)[nH]n23)ccc1Cl [Example 14, 2-(4-tert-butylphenyl)-4-{[3-(4-chloro-3-methylphenoxy)propyl]amino}-6H,7H-pyrazolo[1,5-a][1,3,5]triazin-7-one] | – |
| – | – | – | – | CC(C)(C)c1ccc(-c2nc(O)n3[nH]c(=O)cc3n2)cc1 [Entry 18] | IC50 (S. aureus SgtB): 34 µM |
| – | – | – | – | CC(C)(C)c1ccc(-c2nc(N)n3[nH]c(=O)cc3n2)cc1 [Entry 17] | IC50 (S. aureus SgtB): > 200 µM |
| 64 µg/mL (≈ 168 µM) | 64 µg/mL (≈ 168 µM) | – | – | CN1CCC(Nc2nc(-c3ccc(C(C)(C)C)cc3)nc3cc(=O)[nH]n23)CC1 [Example 19, 2-(4-tert-butylphenyl)-4-[(1-methylpiperidin-4-yl)amino]-6H,7H-pyrazolo[1,5-a][1,3,5]triazin-7-one] | MIC (H. influenzae ATCC 49247): 64 µg/mL (≈ 168 µM) |
| – | – | – | – | Cc1cc(OCCCSc2nc(-c3ccc(C(C)(C)C)cc3)nc3cc(=O)[nH]n23)ccc1Cl [Example 2, 2-(4-tert-butylphenyl)-4-{[3-(4-chloro-3-methylphenoxy)propyl]sulfanyl}-6H,7H-pyrazolo[1,5-a][1,3,5]triazin-7-one] | MIC (S. aureus ATCC 29213; ATCC29213, 24 h, read-out: S. aureus ATCC 29213 MIC at 24 h): > 32 µg/mL; MIC (S. aureus ATCC 43300; ATCC43300, 24 h): > 32 µg/mL; MIC (MSSA Newman; 7 h, read-out: MSSA Newman MIC at 7 h): > 100 µg/mL |
| 16 µg/mL (≈ 37.8 µM) | 8 µg/mL (≈ 18.9 µM) | 1.6 µg/mL (≈ 3.78 µM) | 3.1 µg/mL (≈ 7.33 µM) | Cc1ccc(-c2nc(NCCCNc3ccc(Cl)c(C)c3)n3[nH]c(=O)cc3n2)cc1 [Example 68, 4-({3-[(4-chloro-3-methylphenyl)amino]propyl}amino)-2-(4-methylphenyl)-6H,7H-pyrazolo[1,5-a][1,3,5]triazin-7-one] | – |
| – | – | – | – | CNc1nc(-c2ccc(C(C)(C)C)cc2)nc2cc(=O)[nH]n12 [Entry 16] | IC50 (S. aureus SgtB): > 200 µM |
| – | – | – | – | O=c1[nH]n2c(=S)[nH]c(C34CC5CC(CC(C5)C3)C4)nc2c1Cc1ccccc1 [Example 121, 2-(adamantan-1-yl)-8-benzyl-4-sulfanylidene-3H,4H,6H,7H-pyrazolo[1,5-a][1,3,5]triazin-7-one] | MIC (S. aureus ATCC 29213; [5]): 4 µg/mL (≈ 10.2 µM); MIC (H. influenzae ATCC 49247): 8 µg/mL (≈ 20.4 µM); MIC (S. aureus Newman): 4 µg/mL (≈ 10.2 µM) |

| Compound | MIC (S. aureus ATCC 29213; [1]) | MIC (S. aureus ATCC 43300; [2]) | MIC (MSSA Newman; [3]) | MIC (MSSA Newman; [4]) | other results |
| --- | --- | --- | --- | --- | --- |
| COc1ccc(CNc2nc(-c3ccc(C(C)(C)C)cc3)nc3cc(=O)[nH]n23)cc1 [Example 15, 2-(4-tert-butylphenyl)-4-{[(4-methoxyphenyl)methyl]amino}-6H,7H-pyrazolo[1,5-a][1,3,5]triazin-7-one] | 8 µg/mL (≈ 19.8 µM) | 8 µg/mL (≈ 19.8 µM) | 3.1 µg/mL (≈ 7.68 µM) | 12.5 µg/mL (≈ 31 µM) | – |

Source: patent US20180162862A1 (President and Fellows of Harvard College, priority 2015, published 2018)
